The supplement of paper PMC8092582
± gives the standard deviation of the averaged measurements.

Test system: HeLa
Assay: cell viability (CellTiter-Glo) relative to median of lowest-dilution wells of all drugs (fraction); higher = more viable cells
Experimental: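 HeLa control and CRISPR DDX11 knockout cells were seeded in 384-well plates and incubated for 72 h with each of 64 […] drugs at six concentrations. Viability was read with CellTiter-Glo and normalised to the median of the lowest (6th) dilution wells of all drugs. Two biological replicates (BR1, BR2) are averaged; the concentration unit is not stated.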

[1] = drug concentration (unit not stated): 0.01, genotype: DDX11 knockout
[2] = drug concentration (unit not stated): 0.01, genotype: control (DDX11 wild type)
[3] = drug concentration (unit not stated): 0.04, genotype: DDX11 knockout
[4] = drug concentration (unit not stated): 0.04, genotype: control (DDX11 wild type)
[5] = drug concentration (unit not stated): 0.12, genotype: DDX11 knockout
[6] = drug concentration (unit not stated): 0.12, genotype: control (DDX11 wild type)
[7] = drug concentration (unit not stated): 0.37, genotype: DDX11 knockout
[8] = drug concentration (unit not stated): 0.37, genotype: control (DDX11 wild type)
[9] = drug concentration (unit not stated): 1.11, genotype: DDX11 knockout
[10] = drug concentration (unit not stated): 1.11, genotype: control (DDX11 wild type)
[11] = drug concentration (unit not stated): 3.33, genotype: DDX11 knockout
[12] = drug concentration (unit not stated): 3.33, genotype: control (DDX11 wild type)
[13] = drug concentration (unit not stated): 10, genotype: DDX11 knockout
[14] = drug concentration (unit not stated): 10, genotype: control (DDX11 wild type)

Q: What does the source list for `CC(C)C[C@H](NC(=O)[C@H](Cc1ccccc1)NC(=O)c1cnccn1)B(O)O` [Bortezomib (Velcade)]?
A: cell viability [1]: 0.863 ± 0.14; cell viability [2]: 0.807 ± 0.22; cell viability [3]: 0.215 ± 0.22; cell viability [4]: 0.169 ± 0.17; cell viability [5]: 0.0261 ± 0.012; cell viability [6]: 0.0235 ± 0.00034; cell viability [7]: 0.0196 ± 0.002; cell viability [8]: 0.0189 ± 0.00099; cell viability [9]: 0.0168 ± 0.0011; cell viability [10]: 0.0168 ± 0.0026; cell viability [11]: 0.0124 ± 0.00057; cell viability [12]: 0.0137 ± 0.003

Q: `Nc1cc(C(F)(F)F)c(-c2cc(N3CCOCC3)nc(N3CCOCC3)n2)cn1` [Buparlisib (BKM-120)] was tested. Which cell viability [3] did it give?
A: 1.01 ± 0.023

Q: What about the cell viability [4] of the same molecule?
A: 1.01 ± 0.039

Q: What about the cell viability [5] of the same molecule?
A: 0.963 ± 0.035

Q: And the cell viability [6]?
A: 0.999 ± 0.046

Q: What about the cell viability [7] of the same molecule?
A: 0.881 ± 0.18

Q: And the cell viability [8]?
A: 0.92 ± 0.2

Q: What about the cell viability [9] of the same molecule?
A: 0.625 ± 0.13

Q: What about the cell viability [10] of the same molecule?
A: 0.772 ± 0.3

Q: What about the cell viability [11] of the same molecule?
A: 0.248 ± 0.08

Q: What about the cell viability [12] of the same molecule?
A: 0.247 ± 0.11

Q: And the cell viability [13]?
A: 0.045 ± 0.0024

Q: And the cell viability [14]?
A: 0.0382 ± 0.001

Q: Which results are given for `O=C(O)C1(C(=O)O)CCC1.[NH2-].[NH2-].[Pt+2]` [Carboplatin]?
A: cell viability [5]: 0.981 ± 0.017; cell viability [6]: 1.013 ± 0.0026; cell viability [7]: 0.909 ± 0.031; cell viability [8]: 1.03 ± 0.039; cell viability [9]: 0.829 ± 0.04; cell viability [10]: 1.05 ± 0.14; cell viability [11]: 0.425 ± 0.056; cell viability [12]: 0.904 ± 0.45; cell viability [13]: 0.165 ± 0.021; cell viability [14]: 0.331 ± 0.16; cell viability (drug concentration (unit not stated): 30, genotype: DDX11 knockout): 0.0472 ± 0.0054; cell viability (drug concentration (unit not stated): 30, genotype: control (DDX11 wild type)): 0.0483 ± 0.0055

Q: What does the source list for `CC(C)C[C@H](NC(=O)[C@H](CCc1ccccc1)NC(=O)CN1CCOCC1)C(=O)N[C@@H](Cc1ccccc1)C(=O)N[C@@H](CC(C)C)C(=O)[C@@]1(C)CO1` [Carfilzomib]?
A: cell viability [1]: 0.6 ± 0.63; cell viability [2]: 1.11 ± 0.022; cell viability [3]: 0.512 ± 0.7; cell viability [4]: 1.1 ± 0.07; cell viability [5]: 0.414 ± 0.57; cell viability [6]: 1.02 ± 0.14; cell viability [7]: 0.0394 ± 0.035; cell viability [8]: 0.385 ± 0.37; cell viability [9]: 0.00988 ± 0.0031; cell viability [10]: 0.0166 ± 0.0079

Q: Which cell viability [3] does the source give for `CCCCCCNC(=O)n1cc(F)c(=O)[nH]c1=O` [Carmofur] here?
A: 1.01 ± 0.038

Q: And the cell viability [4]?
A: 0.998 ± 0.026

Q: What about the cell viability [5] of the same molecule?
A: 1.02 ± 0.019

Q: And the cell viability [6]?
A: 1.007 ± 0.0099

Q: And the cell viability [7]?
A: 1.09 ± 0.081

Q: What about the cell viability [8] of the same molecule?
A: 1.05 ± 0.044

Q: And the cell viability [9]?
A: 1.02 ± 0.093

Q: What about the cell viability [10] of the same molecule?
A: 1.07 ± 0.22

Q: What about the cell viability [11] of the same molecule?
A: 0.956 ± 0.24

Q: And the cell viability [12]?
A: 1.03 ± 0.46

Q: What about the cell viability [13] of the same molecule?
A: 0.857 ± 0.2

Q: What about the cell viability [14] of the same molecule?
A: 0.924 ± 0.39

Q: Which results are given for `O=C(O)CCCc1ccc(N(CCCl)CCCl)cc1` [Chlorambucil]?
A: cell viability [3]: 1.061 ± 0.009; cell viability [4]: 0.974 ± 0.056; cell viability [5]: 1.02 ± 0.062; cell viability [6]: 0.9875 ± 0.0097; cell viability [7]: 1.05 ± 0.11; cell viability [8]: 1.02 ± 0.012; cell viability [9]: 1.06 ± 0.057; cell viability [10]: 0.999 ± 0.021; cell viability [11]: 1.07 ± 0.042; cell viability [12]: 1.05 ± 0.082; cell viability [13]: 0.925 ± 0.1; cell viability [14]: 1.03 ± 0.051

Q: What does the source list for `N.N.[Cl][Pt][Cl]` [Cisplatin]?
A: cell viability [3]: 0.76437 ± 0.00042; cell viability [4]: 0.986 ± 0.093; cell viability [5]: 0.541 ± 0.11; cell viability [6]: 0.885 ± 0.29; cell viability [7]: 0.233 ± 0.12; cell viability [8]: 0.464 ± 0.12; cell viability [9]: 0.0768 ± 0.043; cell viability [10]: 0.112 ± 0.0088; cell viability [11]: 0.0231 ± 0.0084; cell viability [12]: 0.024 ± 0.0028; cell viability [13]: 0.0148 ± 0.0023; cell viability [14]: 0.0159 ± 0.0015

Q: Which results are given for `Nc1nc(Cl)nc2c1ncn2[C@H]1C[C@H](O)[C@@H](CO)O1` [Cladribine]?
A: cell viability [1]: 0.96 ± 0.03; cell viability [2]: 0.977 ± 0.015; cell viability [3]: 1.04 ± 0.035; cell viability [4]: 1.04 ± 0.052; cell viability [5]: 1.09 ± 0.077; cell viability [6]: 1.2 ± 0.25; cell viability [7]: 0.935 ± 0.024; cell viability [8]: 1.06 ± 0.25; cell viability [9]: 0.487 ± 0.34; cell viability [10]: 0.468 ± 0.15; cell viability [11]: 0.135 ± 0.12; cell viability [12]: 0.103 ± 0.056

Q: `Nc1nc(Cl)nc2c1ncn2[C@@H]1O[C@H](CO)[C@@H](O)[C@@H]1F` [Clofarabine] was tested. Which cell viability [1] did it give?
A: 1.03 ± 0.061

Q: And the cell viability [2]?
A: 1.04 ± 0.013

Q: What about the cell viability [3] of the same molecule?
A: 0.967 ± 0.12

Q: And the cell viability [4]?
A: 0.999 ± 0.11

Q: And the cell viability [5]?
A: 0.699 ± 0.46

Q: What about the cell viability [6] of the same molecule?
A: 0.887 ± 0.6

Q: And the cell viability [7]?
A: 0.177 ± 0.19

Q: And the cell viability [8]?
A: 0.181 ± 0.2

Q: What about the cell viability [9] of the same molecule?
A: 0.0355 ± 0.013

Q: What about the cell viability [10] of the same molecule?
A: 0.0535 ± 0.038

Q: Which cell viability [1] does the source give for `Nc1ccn([C@@H]2O[C@H](CO)[C@@H](O)[C@@H]2O)c(=O)n1` [Cytarabine] here?
A: 1.05 ± 0.017

Q: What about the cell viability [2] of the same molecule?
A: 1.02 ± 0.028

Q: And the cell viability [3]?
A: 1 ± 0.016

Q: What about the cell viability [4] of the same molecule?
A: 1.02 ± 0.058

Q: And the cell viability [5]?
A: 0.987 ± 0.12

Q: What about the cell viability [6] of the same molecule?
A: 1.02 ± 0.096

Q: And the cell viability [7]?
A: 0.728 ± 0.11

Q: And the cell viability [8]?
A: 0.994 ± 0.21

Q: And the cell viability [9]?
A: 0.682 ± 0.14

Q: And the cell viability [10]?
A: 0.907 ± 0.41
